Assays:
Assay in all cases: Post-emergence test experiment (greenhouse pot, spray at 2-3 leaf stage)
Type in all cases: in vivo
Details in all cases: 1000 g/ha; post-emergence spray at 2-3 leaf stage; assessed after 3 weeks; fresh weight inhibition rate
[1] = system: Abutilon theophrasti
Method in brief: (§1)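 Activity graded levels 0-5 by fresh-weight inhibition (level 5 above 85%, level 0 below 5%), assessed 3 weeks after treatment. Plants grown in greenhouse pots were sprayed post-emergence at 2-3 leaves using acetone/tween-80 solutions with methyl oleate synergist (1.5 L/ha).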

[2] = system: Digitaria sanguinalis
Method in brief: as §1

[3] = system: Echinochloa crusgalli
Method in brief: as §1

[4] = system: Galium spurium
Method in brief: as §1

[5] = system: Monochoria vaginalis
Method in brief: as §1

SMILES | Activity level (growth inhibition rate) Abutilon theophrasti [1] | Activity level (growth inhibition rate) Digitaria sanguinalis [2] | Activity level (growth inhibition rate) Echinochloa crusgalli [3] | Activity level (growth inhibition rate) Galium spurium [4] | Activity level (growth inhibition rate) Monochoria Vaginalis [5]
CC(Oc1nc(F)c(Cl)c(N)c1Cl)C(=O)OCc1ncco1 (stereo not drawn) [Compound 143] | 5 (Level 5: the growth inhibition rate is greater than 85%) | 5 (Level 5: the growth inhibition rate is greater than 85%) | 5 (Level 5: the growth inhibition rate is greater than 85%) | 5 (Level 5: the growth inhibition rate is greater than 85%) | 5 (Level 5: the growth inhibition rate is greater than 85%)
CC(Oc1nc(Cl)c(Cl)c(N)c1Cl)C(=O)SCc1ccccc1 (stereo not drawn) [Compound 24] | 5 (Level 5: the growth inhibition rate is greater than 85%) | 5 (Level 5: the growth inhibition rate is greater than 85%) | 5 (Level 5: the growth inhibition rate is greater than 85%) | 5 (Level 5: the growth inhibition rate is greater than 85%) | 5 (Level 5: the growth inhibition rate is greater than 85%)
CC(Oc1ncc(I)c(N)c1I)C(=O)OCc1ccccc1 (stereo not drawn) [Compound 13] | 5 (Level 5: the growth inhibition rate is greater than 85%) | 5 (Level 5: the growth inhibition rate is greater than 85%) | 5 (Level 5: the growth inhibition rate is greater than 85%) | 5 (Level 5: the growth inhibition rate is greater than 85%) | 5 (Level 5: the growth inhibition rate is greater than 85%)
CC(Oc1nc(F)c(Cl)c(N)c1Cl)C(=O)SCc1ccc(C#CCF)cc1 (stereo not drawn) [Compound 95] | 5 (Level 5: the growth inhibition rate is greater than 85%) | 5 (Level 5: the growth inhibition rate is greater than 85%) | 5 (Level 5: the growth inhibition rate is greater than 85%) | 5 (Level 5: the growth inhibition rate is greater than 85%) | 5 (Level 5: the growth inhibition rate is greater than 85%)
CC(Oc1nc(F)c(Cl)c(N)c1Cl)C(=O)OCC1CCCO1 (stereo not drawn) [Compound 68] | 5 (Level 5: the growth inhibition rate is greater than 85%) | 5 (Level 5: the growth inhibition rate is greater than 85%) | 5 (Level 5: the growth inhibition rate is greater than 85%) | 5 (Level 5: the growth inhibition rate is greater than 85%) | 5 (Level 5: the growth inhibition rate is greater than 85%)
Cc1nc(OC(C)C(=O)OCc2ccccc2)c(Cl)c(N)c1Cl (stereo not drawn) [Compound 5] | 5 (Level 5: the growth inhibition rate is greater than 85%) | 5 (Level 5: the growth inhibition rate is greater than 85%) | 5 (Level 5: the growth inhibition rate is greater than 85%) | 5 (Level 5: the growth inhibition rate is greater than 85%) | 5 (Level 5: the growth inhibition rate is greater than 85%)
CC(Oc1nc(F)c(Cl)c(N)c1Cl)C(=O)OCCc1cnsc1 (stereo not drawn) [Compound 162] | 5 (Level 5: the growth inhibition rate is greater than 85%) | 5 (Level 5: the growth inhibition rate is greater than 85%) | 5 (Level 5: the growth inhibition rate is greater than 85%) | 5 (Level 5: the growth inhibition rate is greater than 85%) | 5 (Level 5: the growth inhibition rate is greater than 85%)
Cc1ccccc1CSC(=O)C(C)Oc1nc(F)c(Cl)c(N)c1Cl (stereo not drawn) [Compound 218] | 5 (Level 5: the growth inhibition rate is greater than 85%) | 5 (Level 5: the growth inhibition rate is greater than 85%) | 5 (Level 5: the growth inhibition rate is greater than 85%) | 5 (Level 5: the growth inhibition rate is greater than 85%) | 5 (Level 5: the growth inhibition rate is greater than 85%)
COc1cccc(F)c1CSC(=O)C(C)Oc1nc(F)c(Cl)c(N)c1Cl (stereo not drawn) [Compound 84] | 5 (Level 5: the growth inhibition rate is greater than 85%) | 5 (Level 5: the growth inhibition rate is greater than 85%) | 5 (Level 5: the growth inhibition rate is greater than 85%) | 5 (Level 5: the growth inhibition rate is greater than 85%) | 5 (Level 5: the growth inhibition rate is greater than 85%)
CC(Oc1nc(F)c(Cl)c(N)c1Cl)C(=O)OCc1nnnn1C (stereo not drawn) [Compound 138] | 5 (Level 5: the growth inhibition rate is greater than 85%) | 5 (Level 5: the growth inhibition rate is greater than 85%) | 5 (Level 5: the growth inhibition rate is greater than 85%) | 5 (Level 5: the growth inhibition rate is greater than 85%) | 5 (Level 5: the growth inhibition rate is greater than 85%)
CC(Oc1nc(F)c(Cl)c(N)c1Cl)C(=O)OCc1ccc2ncsc2c1 (stereo not drawn) [Compound 180] | 5 (Level 5: the growth inhibition rate is greater than 85%) | 5 (Level 5: the growth inhibition rate is greater than 85%) | 5 (Level 5: the growth inhibition rate is greater than 85%) | 5 (Level 5: the growth inhibition rate is greater than 85%) | 5 (Level 5: the growth inhibition rate is greater than 85%)
CC(Oc1nc(F)c(Cl)c(N)c1Cl)C(=O)OCc1ccno1 (stereo not drawn) [Compound 144] | 5 (Level 5: the growth inhibition rate is greater than 85%) | 5 (Level 5: the growth inhibition rate is greater than 85%) | 5 (Level 5: the growth inhibition rate is greater than 85%) | 5 (Level 5: the growth inhibition rate is greater than 85%) | 5 (Level 5: the growth inhibition rate is greater than 85%)
CC(Oc1nc(F)c(Cl)c(N)c1Cl)C(=O)OCc1cncn1C (stereo not drawn) [Compound 131] | 5 (Level 5: the growth inhibition rate is greater than 85%) | 5 (Level 5: the growth inhibition rate is greater than 85%) | 5 (Level 5: the growth inhibition rate is greater than 85%) | 5 (Level 5: the growth inhibition rate is greater than 85%) | 5 (Level 5: the growth inhibition rate is greater than 85%)
COC(=O)c1ccc(COC(=O)C(C)Oc2nc(F)c(Cl)c(N)c2Cl)cc1 (stereo not drawn) [Compound 98] | 5 (Level 5: the growth inhibition rate is greater than 85%) | 5 (Level 5: the growth inhibition rate is greater than 85%) | 5 (Level 5: the growth inhibition rate is greater than 85%) | 5 (Level 5: the growth inhibition rate is greater than 85%) | 5 (Level 5: the growth inhibition rate is greater than 85%)
CSc1cccc(COC(=O)C(C)Oc2nc(F)c(Cl)c(N)c2Cl)c1 (stereo not drawn) [Compound 92] | 5 (Level 5: the growth inhibition rate is greater than 85%) | 5 (Level 5: the growth inhibition rate is greater than 85%) | 5 (Level 5: the growth inhibition rate is greater than 85%) | 5 (Level 5: the growth inhibition rate is greater than 85%) | 5 (Level 5: the growth inhibition rate is greater than 85%)

From patent US12049450B2, “Pyridyloxy-carboxylate derivative and preparation method therefor, herbicidal composition, and use” (Qingdao Kingagroot Chemical Compound Co., Ltd., priority 2018, dated 2024)
